On to `CC(=O)COC(C)CNc1ccc(-c2ccccc2)c(C)n1` (stereo not given), for which the logP is 3.74.
Next, `CCC(=O)OCCNc1ccc(-c2ccncc2)cn1`: 2.47; `CC(=O)N1CCN(c2ccc(-c3ccccc3)c(C)n2)CC1`: 4.08; `O=C(OCCNc1ccc(-c2ccncc2)cn1)c1cccnc1`: 2.58.
On to `CC(=O)N1CCN(c2ccc(-c3ccncc3)cn2)CC1`, for which the logP stood at 2.04.
With `CC(=O)OCCN(CCOC(C)=O)c1ncc(-c2ccncc2)cc1C#N`, the logP was determined as 2.44.
With `CCC(=O)OCCCNc1ccc(-c2ccncc2)cn1`, the logP was found to be 2.87.
Next, `CC(=O)OCCCNc1ccc(-c2ccncc2)cn1`: 2.42; `CC(=O)OCC(COc1ncc(-c2ccncc2)cc1C#N)OC(C)=O` (stereo not given): 2.51; `O=C(OCCNc1ccc(-c2ccncc2)cn1)c1ccccc1`: 3.84.
In the case of `CC(=O)OCCNc1ccc(-c2ccncc2)cn1`, the logP worked out at 2.
To `CC(=O)OCCNc1ccc(-c2ccncc2)c(C)n1` belongs 2.59; to `CCC(=O)OCCOc1ccc(-c2ccncc2)c(C)n1`, 3.21; to `O=C(OCCCNc1ccc(-c2ccncc2)cn1)c1ccccc1`, 4.06.
To `CC(=O)OCCOc1ccc(-c2ccncc2)cn1` belongs 1.92; to `CC(=O)OCCCOc1ccc(-c2ccncc2)cn1`, 2.48; to `CC(=O)OCCOc1ccc(-c2ccccc2)c(C)n1`, 4.
`CC(=O)OCCCNc1ccc(-c2ccncc2)c(C)n1` had a logP of 2.91.
Next, `CCC(=O)OCCCOc1ccc(-c2ccncc2)cn1`: 3.07; `CCC(=O)N1CCN(c2ccc(-c3ccncc3)cn2)CC1`: 2.39.

Usually logP stands for the decadic logarithm of the partition coefficient of the neutral form, usually between octanol and water. Low values mean lower lipophilicity, high ones higher lipophilicity.

Values taken from the SangsterLogP compilation.
